According to the Kinase Knowledgebase extract (Sharma et al. 2016):

The compounds below were run against CDK2 (human) (UniProt P24941) (assay: Enzyme Assay).

SMILES	IC50
Cc1c(N[C@H]2CC[C@H](N)CC2)nc2ccnn2c1Nc1cccc(Br)c1	< 100 µM
Cc1c(N[C@H]2CC[C@H](N)CC2)nc2ccnn2c1Nc1ccc(-c2cc3ccccc3o2)cc1	< 100 µM
Cc1c(N[C@H]2CC[C@H](N)CC2)nc2ccnn2c1Nc1ccc(-c2cccc(OC(F)(F)F)c2)cc1	< 100 µM
CCc1c(N[C@H]2CC[C@H](N)CC2)nc2ccnn2c1Nc1cccc(C)c1	< 100 µM
Cc1c(N[C@H]2CC[C@H](N)CC2)nc2ccnn2c1Nc1ccc(-c2cccc(O)c2)cc1	< 100 µM
Cc1nc2cc(Nc3c(C)c(N[C@H]4CC[C@H](N)CC4)nc4ccnn34)ccc2s1	< 100 µM
CCOC(=O)c1cccc(Nc2c(CC)c(N[C@H]3CC[C@H](N)CC3)nc3ccnn23)c1	< 100 µM
CCc1c(N[C@H]2CC[C@H](N)CC2)nc2ccnn2c1Nc1cccc(OCc2ccccc2)c1	< 100 µM
Cc1c(N[C@H]2CC[C@H](N)CC2)nc2ccnn2c1Nc1ccc(-c2ccccc2)cc1	< 100 µM
CCS(=O)(=O)c1ccc(-c2ccc(Nc3c(C)c(N[C@H]4CC[C@H](N)CC4)nc4ccnn34)cc2)cc1	< 100 µM
Cc1ccccc1-c1ccc(Nc2c(C)c(N[C@H]3CC[C@H](N)CC3)nc3ccnn23)cc1	< 100 µM
Cc1nn2c(Nc3ccc(F)c(Cl)c3)cc(N[C@H]3CC[C@H](N)CC3)nc2c1Br	< 100 µM
Cc1c(N[C@H]2CC[C@H](N)CC2)nc2ccnn2c1Nc1ccc(-c2ccc(C#N)cc2)cc1	< 100 µM
Cc1c(N[C@H]2CC[C@H](N)CC2)nc2ccnn2c1Nc1ccc(-c2ccc(CO)cc2)cc1	< 100 µM
Cc1c(N[C@H]2CC[C@H](N)CC2)nc2ccnn2c1Nc1ccc(-c2cc3ccccc3[nH]2)cc1	< 100 µM
Cc1c(N[C@H]2CC[C@H](N)CC2)nc2ccnn2c1Nc1ccc(-c2ccc(O)cc2)cc1	< 100 µM
CCc1c(N[C@H]2CC[C@H](N)CC2)nc2ccnn2c1Nc1ccc(C(N)=O)cc1	< 100 µM
CCOc1cccc(Nc2cc(N[C@H]3CC[C@H](N)CC3)nc3c(C#N)cnn23)c1	< 100 µM
N[C@H]1CC[C@H](Nc2nc3ccnn3c(Nc3ccc(F)c(Cl)c3)c2-c2ccccc2)CC1	< 100 µM
Cc1c(N[C@H]2CC[C@H](N)CC2)nc2ccnn2c1Nc1ccc(-c2cccc(C#N)c2)cc1	< 100 µM
Cc1c(N[C@H]2CC[C@H](N)CC2)nc2ccnn2c1Nc1ccc(C(=O)NCc2cccnc2)cc1	< 100 µM
CCc1c(N[C@H]2CC[C@H](N)CC2)nc2ccnn2c1NCc1ccccc1Cl	< 100 µM
CCc1c(N[C@H]2CC[C@H](N)CC2)nc2ccnn2c1Nc1cccc(C(N)=O)c1	< 100 µM

Results, then the compound that gave them:

IC50	SMILES
< 100 µM	CCOc1cccc(Nc2c(CC)c(N[C@H]3CC[C@H](N)CC3)nc3ccnn23)c1
< 100 µM	Cc1c(N[C@H]2CC[C@H](N)CC2)nc2ccnn2c1Nc1ccc2cn[nH]c2c1
< 100 µM	CCOc1ccc(Nc2c(C)c(N[C@H]3CC[C@H](N)CC3)nc3ccnn23)cc1
< 100 µM	COc1cccc(-c2ccc(Nc3c(C)c(N[C@H]4CC[C@H](N)CC4)nc4ccnn34)cc2)c1
< 100 µM	Cc1c(N[C@H]2CC[C@H](N)CC2)nc2ccnn2c1Nc1ccc(OCc2cccc(N)c2)cc1
< 100 µM	Cc1c(N[C@H]2CC[C@H](N)CC2)nc2ccnn2c1Nc1ccc(OCCN2CCOCC2)cc1
< 100 µM	CCOC(=O)c1ccc(Nc2c(CC)c(N[C@H]3CC[C@H](N)CC3)nc3ccnn23)cc1
< 100 µM	Cc1c(N[C@H]2CC[C@H](N)CC2)nc2ccnn2c1Nc1ccc(-c2ccsc2C=O)cc1
< 100 µM	Cc1ccc(Nc2c(C)c(N[C@H]3CC[C@H](N)CC3)nc3ccnn23)cc1C
< 100 µM	Cc1c(N[C@H]2CC[C@H](N)CC2)nc2c(C(=O)C(F)(F)F)cnn2c1Nc1ccc(I)cc1
< 100 µM	Fc1ccc(Nc2cc(NC3CCCNC3)nc3c(Br)cnn23)cc1Cl (configuration not stated)
< 100 µM	Cc1c(N[C@H]2CC[C@H](N)CC2)nc2ccnn2c1Nc1ccc(OC2CCCCC2)cc1
< 100 µM	CCc1c(N[C@H]2CC[C@H](N)CC2)nc2ccnn2c1Nc1ccc(I)cc1
< 100 µM	Cc1c(N[C@H]2CC[C@H](N)CC2)nc2ccnn2c1Nc1ccc2[nH]ncc2c1
< 100 µM	Cc1c(N[C@H]2CC[C@H](N)CC2)nc2ccnn2c1Nc1ccc(OC2CCOCC2)cc1
< 100 µM	Cc1c(N[C@H]2CC[C@H](N)CC2)nc2ccnn2c1Nc1ccc2cc[nH]c2c1
< 100 µM	COc1c(NC2CCCNC2)nc2ccnn2c1Nc1ccc(F)c(Cl)c1 (configuration not stated)
< 100 µM	CCOc1ccc(Nc2c(C)c(N[C@H]3CC[C@H](N)CC3)nc3c(OC)cnn23)cc1
< 100 µM	CC(=O)c1ccc(-c2ccc(Nc3c(C)c(N[C@H]4CCCNC4)nc4ccnn34)cc2)s1
< 100 µM	Cc1ccc(Nc2c(C)c(NC3CCCNC3)nc3ccnn23)cc1C (configuration not stated)
< 100 µM	CCOc1cccc(Nc2c(C)c(N[C@H]3CC[C@H](N)CC3)nc3ccnn23)c1
< 100 µM	Cc1c(N[C@H]2CC[C@H](N)CC2)nc2c(C#N)cnn2c1Nc1ccc(F)c(Cl)c1
< 100 µM	CCOc1ccc(Nc2c(C)c(NC3CCCNC3)nc3c(CC)cnn23)cc1 (configuration not stated)
< 100 µM	Cc1c(NC2CCCNC2)nc2ccnn2c1Nc1ccc(-c2cccc(CO)c2)cc1 (configuration not stated)
< 100 µM	CCCCOc1ccc(Nc2c(CC)c(N[C@H]3CC[C@H](N)CC3)nc3ccnn23)cc1
< 100 µM	Cc1c(N[C@H]2CC[C@H](N)CC2)nc2ccnn2c1Nc1ccc(OCc2cccc(Cl)c2)cc1
< 100 µM	CCOc1ccc(Nc2c(C)c(N[C@H]3CCN(Cc4ccccc4)C3)nc3ccnn23)cc1
< 100 µM	Cc1c(N[C@H]2CC[C@H](N)CC2)nc2ccnn2c1Nc1ccc(OCCN2CCCCC2)cc1
< 100 µM	Cc1c(NC2CCCNC2)nc2ccnn2c1Nc1ccc(F)c(Cl)c1 (configuration not stated)
